Several values for one entry are separate records, joined by “and”; a condition that tells them apart may be missing. Equal values may be shown once.
How the values were obtained:
[1] = test system: human embryonic stem cells (H9 or H1 lines); test: Plate reader (MTS) proliferation assay; assay type: cell-based; conditions: for Average (of Raw Data): plate reader raw signal, mean of replicate wells; for Average: average of replicate raw data; for Raw Data: replicate wells, plate reader proliferation screen of GSK-3B inhibitors; for activity at 10 µM: Homo sapiens, Embryonic stem cell, 96 h
How it was run: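 H9 or H1 cells on Matrigel, washed, then given DMEM:F12 with 0.5% FCS, 100 ng/ml activin A and 10 μM compound (days 1–2), then 2% FCS plus activin A (days 3–4). MTS added day 4, OD490 read after 1.5–4 h at 37 °C; triplicates as percent of activin A/Wnt3a control.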

[2] = test system: human embryonic stem cells (H9 line); test: High content screening assay: cell number (proliferative response); assay type: cell-based; conditions: for fold induction at 10 µM: Homo sapiens, Embryonic stem cell, read-out: Proliferative Response, Fold over Wnt 3a/AA control
How it was run: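 H9 hESCs on MATRIGEL treated days 1-2 with 10 μM compound in DMEM:F12, 0.5% FCS, 100 ng/ml activin A; days 3-4 with 2% FCS plus activin A without compound. Fixed cells immunostained for Sox17 or HNF-3beta with Draq5 nuclear counterstain. Cell number and staining intensity quantified by high-content imaging, 12 fields/well.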

[3] = proliferation of human embryonic stem cells
[4] = cell number in the wells analysed for HNF-3b expression
[5] = cell number in the wells analysed for SOX-17 expression
[6] = relative to AA/Wnt3a/DMSO positive control (100.0) of the same plate
[7] = cell number in the wells analysed for HNF-3b expression, normalised to Wnt 3a/AA control
[8] = cell number in the wells analysed for SOX-17 expression, normalised to Wnt 3a/AA control
[9] = 10 μM test compound with 100 ng/ml activin A on days 1-2, MTS OD490 on day 4, vs Activin A/Wnt3a positive control, strong and moderate hits
[10] = 10 μM test compound with 100 ng/ml activin A on days 1-2, H9, total cell number by IN Cell Analyzer, strong and moderate hits

| Compound | Average (of Raw Data) [1, 3] | Proliferative Response Total cells [2, 4] | Proliferative Response Total cells [2, 5] | Average [1] | % Control [1, 6] [%] | Raw Data [1] | Proliferative Response Fold over Wnt 3a/AA control [2, 7] [fold] | Proliferative Response Fold over Wnt 3a/AA control [2, 8] [fold] | activity at 10 µM [1, 9] [%] | fold induction at 10 µM [2, 10] | % Control Value (proliferation) [1, 9] [%] | Proliferative Response Fold over Wnt 3a/AA control [2, 10] | % Control ([1]; proliferation of human embryonic stem cells, AA/Wnt3a = 100.0, no cells = 0.0) [%] |
| --- | --- | --- | --- | --- | --- | --- | --- | --- | --- | --- | --- | --- | --- |
| COc1ccccc1C1=C(c2cn(CCCNC(C)=O)c3ncccc23)C(=O)NC1=O [Compound 27, N-[3-(3-{4-[2-(Methyloxy)phenyl]-2,5-dioxo-2,5-dihydro-1H-pyrrol-3-yl}-1H-pyrrolo[2,3-b]pyridin-1-yl)propyl]acetamide] | 0.1152 | 5 | 5 | – | – | – | – | – | – | – | – | – | – |
| O=C1NC(=O)C2=C1c1cn(c3ncccc13)CCOCCOCCOCCOCCOCCn1cc2c2cccnc21 [Compound 168, 10,11,13,14,16,17,19,20,22,23,25,26-Dodecahydro-1H-9,4:27,32-di(metheno)dipyrido[2,3-q:3′,2′-w]pyrrolo[3,4-t][1,4,7,10,13,16,25]pentaoxadiazacycloheptacosine-1,3(2H)-dione] | – | 57 | 118 | 0.3421 | 36.8 | 0.3702 and 0.3193 and 0.3368 | 0.04523 | 0.07046 | – | – | – | – | – |
| CC(C)(O)CCn1nc(C2=C(c3cn(-c4cccnc4)c4ccccc34)C(=O)NC2=O)c2ccccc21 [Compound 223, 3-[1-(3-Hydroxy-3-methylbutyl)-1H-indazol-3-yl]-4-(1-pyridin-3-yl-1H-indol-3-yl)-1H-pyrrole-2,5-dione] | – | 9871 | 14529 | 1.7982 | – | – | – | – | 129 | 0.948 | – | – | – |
| O=C1NC(=O)C(c2cn(CCCO)c3ncccc23)=C1c1cc(Cl)sc1Cl [Compound 18, 3-(2,5-Dichlorothiophen-3-yl)-4-[1-(3-hydroxypropyl)-1H-pyrrolo[2,3-b]pyridin-3-yl]-1H-pyrrole-2,5-dione] | 0.1442 | 4 | 3 | – | – | – | – | – | – | – | – | – | – |
| COc1ccccc1C1=C(c2cn(CCCNC(=O)OC(C)(C)C)c3ncccc23)C(=O)NC1=O [Compound 26, 1,1-Dimethylethyl [3-(3-{4-[2-(methyloxy)phenyl]-2,5-dioxo-2,5-dihydro-1H-pyrrol-3-yl}-1H-pyrrolo[2,3-b]pyridin-1-yl)propyl]carbamate] | 0.3611 | 136 | 109 | – | – | – | – | – | – | – | – | – | – |
| O=C1NC(=O)C2=C1c1cn(c3ccccc13)CCOCCOCCOCCOCCn1cc2c2ccccc21 [Compound 165, 10,11,13,14,16,17,19,20,22,23-Decahydro-1H-9,4:24,29-di(metheno)dibenzo[n,t]pyrrolo[3,4-q][1,4,7,10,13,22]tetraoxadiazacyclotetracosine-1,3(2H)-dione] | – | 7460 | 2899 | 1.8175 | – | 1.7896 and 1.4721 and 2.1908 | 5.885 | 1.736 | – | – | 195.3 | 5.8846 Fold over Wnt 3a/AA control | – |
| O=C1NC(=O)C(c2cn(CCOCCOCCNC3CCCc4ccccc43)c3ccccc23)=C1c1cn(CCNC2CCCc3ccccc32)c2ccccc12 (stereo not drawn) [Compound 144, 3-{1-[2-(1,2,3,4-Tetrahydronaphthalen-1-ylamino)ethyl]-1H-indol-3-yl}-4-(1-{2-[(2-{[2-(1,2,3,4-tetrahydronaphthalen-1-ylamino)ethyl]oxy}ethyl)oxy]ethyl}-1H-indol-3-yl)-1H-pyrrole-2,5-dione] | – | 6833 | 7990 | 1.2160 | – | – | – | – | 84 | – | – | – | – |
| O=C1NC(=O)C(c2cn(-c3cccnc3)c3ccccc23)=C1c1cn(CCO)c2ccccc12 [Compound 206, 3-[1-(2-Hydroxyethyl)-1H-indol-3-yl]-4-(1-pyridin-3-yl-1H-indol-3-yl)-1H-pyrrole-2,5-dione] | – | 10331 | 11886 | 1.7251 | – | – | – | – | 108 | 1.42 | – | – | – |
| COC(=O)c1cncc(-n2cc(C3=C(c4nn(CCO)c5ccccc45)C(=O)NC3=O)c3cc(Cl)ccc32)c1 [Compound 150, Methyl 5-(5-chloro-3-{4-[1-(2-hydroxyethyl)-1H-indazol-3-yl]-2,5-dioxo-2,5-dihydro-1H-pyrrol-3-yl}-1H-indol-1-yl)pyridine-3-carboxylate] | – | 6992 | 7958 | 0.9475 | – | – | – | – | 63.3 | – | – | – | – |
| Cc1c[nH]c(-c2cnc(NCCNc3ccc(C#N)cn3)nc2-c2ccc(Cl)cc2Cl)n1 [Compound 221, 6-[(2-{[4-(2,4-Dichlorophenyl)-5-(4-methyl-1H-imidazol-2-yl)pyrimidin-2-yl]amino}ethyl)amino]pyridine-3-carbonitrile] | 0.4291 | 21203 | 21070 | 1.8228 | – | – | – | – | 131 | 1.38 | – | – | – |
| O=C1NC(=O)C(c2cn(CCCO)c3ncccc23)=C1c1cccs1 [Compound 17, 3-[1-(3-Hydroxypropyl)-1H-pyrrolo[2,3-b]pyridin-3-yl]-4-thiophen-2-yl-1H-pyrrole-2,5-dione] | 0.4114 | 83 | 158 | – | – | – | – | – | – | – | – | – | – |
| COc1ccccc1C1=C(c2cn(-c3ccc4ccccc4c3)c3ncccc23)C(=O)NC1=O [Compound 23, 3-[2-(Methyloxy)phenyl]-4-(1-naphthalen-2-yl-1H-pyrrolo[2,3-b]pyridin-3-yl)-1H-pyrrole-2,5-dione] | 0.4714 | 399 | 88 | – | – | – | – | – | – | – | – | – | – |
| Cn1cc(C2=C(c3nn(CCCn4ccnc4)c4ccccc34)C(=O)NC2=O)c2cc(Cl)ccc21 [Compound 231, 3-(5-Chloro-1-methyl-1H-indol-3-yl)-4-{1-[3-(1H-imidazol-1-yl)propyl]-1H-indazol-3-yl}-1H-pyrrole-2,5-dione] | – | 11369 | 13789 | 1.6020 | – | – | – | – | 114 | 0.9 | – | – | – |
| O=C1NC(=O)C2=C1c1cn(c3ncccc13)CCOCCOCCn1cc2c2cccnc21 [Compound 180, 6,7,9,10,12,13-Hexahydro-20H-5,23:14,19-di(metheno)dipyrido[2,3-h:3′,2′-n]pyrrolo[3,4-k][1,4,7,16]dioxadiazacyclooctadecine-20,22(21H)-dione] | 0.3793 | 4 | 3 | 0.1247 | 13.4 | 0.1239 and 0.1233 and 0.1269 | 0.003155 | 0.001796 | – | – | – | – | 29.3 |
| COCCCn1cc(C2=C(c3ccccc3O)C(=O)NC2=O)c2cccnc21 [Compound 22, 3-(2-Hydroxyphenyl)-4-{1-[3-(methyloxy)propyl]-1H-pyrrolo[2,3-b]pyridin-3-yl}-1H-pyrrole-2,5-dione] | 0.3385 | 69 | 33 | – | – | – | – | – | – | – | – | – | – |
| Cn1ccc(C2=C(c3cn(CCCO)c4ncccc34)C(=O)NC2=O)n1 [Compound 209] | – | 4209 | 2473 | 1.0739 | – | – | – | – | 67.4 | – | – | – | – |

From US20130337564A1, “Treatment of Pluripotent Cells” (Janssen Biotech, Inc., priority 2012, published 2013)
